Results taken from patent publication US12077503B2, “Substituted cyclic amides and their use as herbicides” (FMC CORPORATION, priority 2015, dated 2024).

Key:
Format in all cases: in vivo
[1] = test system: giant foxtail (Setaria faberii); experiment: Test A postemergence; settings: Setaria faberi, post-emergence, 240 h, Postemergence, read-out: Foxtail, Giant plant response rating (0 to 100 scale)
Method in brief: (§1)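 Seeded soil received test chemicals as a preemergence directed spray, and seedlings at one to two leaves, 2–10 cm tall, received them postemergence, in a non-phytotoxic, surfactant-containing solvent mixture. Pots were held in a greenhouse for approximately 10 d, then rated for injury from 0, no effect, to 100, complete control.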

[2] = test system: Galium (catchweed bedstraw, Galium aparine); experiment: Test A postemergence; settings: Galium, post-emergence, 240 h, Postemergence, read-out: Galium plant response rating (0 to 100 scale)
Method in brief: as §1

[3] = test system: ryegrass, Italian (Italian ryegrass, Lolium multiflorum); experiment: Test A postemergence; settings: Lolium multiflorum, post-emergence, 240 h, Postemergence, read-out: Ryegrass, Italian plant response rating (0 to 100 scale)
Method in brief: as §1

[4] = test system: blackgrass (Alopecurus myosuroides); experiment: Test A postemergence; settings: Alopecurus myosuroides, post-emergence, 240 h, Postemergence, read-out: Blackgrass plant response rating (0 to 100 scale)
Method in brief: as §1

[5] = test system: barnyardgrass (Echinochloa crus-galli); experiment: Test A postemergence; settings: Echinochloa crus-galli, post-emergence, 240 h, Postemergence
Method in brief: as §1

Kochia (Kochia scoparia) [6] = experiment: Test A postemergence; settings: Bassia scoparia, post-emergence, 240 h, Postemergence, read-out: Kochia plant response rating (0 to 100 scale)
Method in brief: as §1

[7] = test system: wheat (Triticum aestivum); experiment: Test A postemergence; settings: Triticum aestivum, post-emergence, 240 h, Postemergence, read-out: Wheat plant response rating (0 to 100 scale)
Method in brief: as §1

corn (Zea mays) = experiment: Test A postemergence; settings: Zea mays, post-emergence, 240 h, Postemergence, read-out: Corn plant response rating (0 to 100 scale)
Method in brief: as §1

[8] = test system: pigweed (Amaranthus retroflexus); experiment: Test A postemergence; settings: Amaranthus retroflexus, post-emergence, 240 h, Postemergence, read-out: Pigweed plant response rating (0 to 100 scale)
Method in brief: as §1

[9] = test system: ragweed (common ragweed, Ambrosia elatior); experiment: Test A postemergence; settings: Ambrosia artemisiifolia, post-emergence, 240 h, Postemergence, read-out: Ragweed plant response rating (0 to 100 scale)
Method in brief: as §1

rice (Oryra sativa) = experiment: Test B flooded paddy test; settings: Oryza sativa, 250 g ai/ha, Flood; 0 to 100 scale where 0 is no effect and 100 is complete control; read-out: Rice plant response rating
Method in brief: (§2)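 Evaluation by eye, against controls, occurred 13–15 d post-treatment in a greenhouse, using a 0 (no effect) to 100 (complete control) scale. Application was into the paddy water, 3 cm deep over the soil, on 2-leaf plants.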

[10] = test system: ducksalad (Heteranthera limosa); experiment: Test B flooded paddy test; settings: Heteranthera limosa, 250 g ai/ha, Flood; 0 to 100 scale where 0 is no effect and 100 is complete control; read-out: Ducksalad plant response rating
Method in brief: as §2

[11] = test system: barnyardgrass (Echinochloa crus-galli); experiment: Test B flooded paddy test; settings: Echinochloa crus-galli, 250 g ai/ha, Flood; 0 to 100 scale where 0 is no effect and 100 is complete control; read-out: Barnyardgrass plant response rating
Method in brief: as §2

[12] = test system: sedge, umbrella (small-flower umbrella sedge, Cyperus difformis); experiment: Test B flooded paddy test; settings: Cyperus difformis, 250 g ai/ha, Flood; 0 to 100 scale where 0 is no effect and 100 is complete control; read-out: Sedge, Umbrella plant response rating
Method in brief: as §2

[13] = test system: giant foxtail (Setaria faberii); experiment: Test A preemergence; settings: Setaria faberi, pre-emergence, 240 h, 0 to 100 scale where 0 is no effect and 100 is complete control, read-out: Foxtail, Giant plant response rating
Method in brief: as §1

[14] = test system: ryegrass, Italian (Italian ryegrass, Lolium multiflorum); experiment: Test A preemergence; settings: Lolium multiflorum, pre-emergence, 240 h, 0 to 100 scale where 0 is no effect and 100 is complete control, read-out: Ryegrass, Italian plant response rating
Method in brief: as §1

[15] = test system: barnyardgrass (Echinochloa crus-galli); experiment: Test A preemergence; settings: Echinochloa crus-galli, pre-emergence, 240 h, 0 to 100 scale where 0 is no effect and 100 is complete control, read-out: Barnyardgrass plant response rating
Method in brief: as §1

Kochia (Kochia scoparia) [16] = experiment: Test A preemergence; settings: Bassia scoparia, pre-emergence, 240 h, 0 to 100 scale where 0 is no effect and 100 is complete control, read-out: Kochia plant response rating
Method in brief: as §1

[17] = test system: pigweed (Amaranthus retroflexus); experiment: Test A preemergence; settings: Amaranthus retroflexus, pre-emergence, 240 h, 0 to 100 scale where 0 is no effect and 100 is complete control, read-out: Pigweed plant response rating
[18] = test system: ragweed (common ragweed, Ambrosia elatior); experiment: Test A preemergence; settings: Ambrosia artemisiifolia, pre-emergence, 240 h, 0 to 100 scale where 0 is no effect and 100 is complete control, read-out: Ragweed plant response rating
Method in brief: as §1

[19] = 125 g ai/ha, visual rating about 10 d after treatment
[20] = 31 g ai/ha, 0 is no effect, 100 is complete control
[21] = 125 g ai/ha, preemergence, visual injury rating, approximately 10 d

`CN1C[C@H](c2csc3c2CCOC3)[C@@H](C(=O)Nc2ccccc2F)C1=O` [Compound 1267] gave a pest or weed control at 125 g/ha [1, 19] of 90%, a pest or weed control at 31 g/ha [1, 20] of 60% and a pest or weed control at 125 g/ha [2, 19] of 0%. It also gave a pest or weed control at 31 g/ha [2, 20] of 0%, a pest or weed control at 125 g/ha [3, 19] of 0% and a pest or weed control at 31 g/ha [3, 20] of 0%. For the same molecule, the pest or weed control at 125 g/ha [4, 19] was 0%, the pest or weed control at 31 g/ha [4, 20] was 0% and the pest or weed control at 125 g/ha ([5]; 125 g ai/ha, visual rating about 10 d after treatment, read-out: Barnyardgrass plant response rating (0 to 100 scale, 0 no effect, 100 complete control)) was 90%. For the same molecule, the pest or weed control at 31 g/ha ([5]; 31 g ai/ha, 0 is no effect, 100 is complete control, read-out: Barnyardgrass plant response rating (0 to 100 scale)) was 60%, the pest or weed control at 125 g/ha (Kochia (Kochia scoparia) [6]; [19]) was 0% and the pest or weed control at 31 g/ha (Kochia (Kochia scoparia) [6]; [20]) was 0%. The plant injury at 125 g/ha [7, 19] was 0%, the plant injury at 31 g/ha [7, 20] was 0% and the plant injury at 125 g/ha (corn (Zea mays); [19]) was 0%. It also gave a plant injury at 31 g/ha (corn (Zea mays); [20]) of 0%, a pest or weed control at 125 g/ha [8, 19] of 0% and a pest or weed control at 31 g/ha [8, 20] of 0%. It also gave a pest or weed control at 125 g/ha [9, 19] of 0%, a pest or weed control at 31 g/ha [9, 20] of 0% and a pest or weed control at 250 g/ha (rice (Oryra sativa)) of 0%. The pest or weed control at 250 g/ha [10] was 90%, the pest or weed control at 250 g/ha [11] was 90% and the pest or weed control at 250 g/ha [12] was 0%. For the same molecule, the pest or weed control at 31 g/ha ([13]; 31 g ai/ha, Preemergence) was 90%, the pest or weed control at 125 g/ha [13, 21] was 90% and the pest or weed control at 31 g/ha ([14]; 31 g ai/ha, Preemergence) was 0%. The pest or weed control at 125 g/ha [14, 21] was 0%, the pest or weed control at 31 g/ha ([15]; 31 g ai/ha, Preemergence) was 90% and the pest or weed control at 125 g/ha [15, 21] was 90%. It also gave a pest or weed control at 31 g/ha (Kochia (Kochia scoparia) [16]; 31 g ai/ha, Preemergence) of 0%, a pest or weed control at 125 g/ha (Kochia (Kochia scoparia) [16]; [21]) of 0% and a pest or weed control at 31 g/ha ([17]; 31 g ai/ha, Preemergence) of 0%. For the same molecule, the pest or weed control at 125 g/ha [17, 21] was 0%, the pest or weed control at 31 g/ha ([18]; 31 g ai/ha, Preemergence) was 0% and the pest or weed control at 125 g/ha [18, 21] was 0%.
